Experimental findings from PubChem BioAssay AID298 (DTP/NCI, 2004) are described below.

The test concerns MX-1 breast xenograft, intrarenal, nude mice, tumor weight. The test is described as follows: NCI In Vivo Anticancer Drug Screen. Data for tumor model Human Mammary Carcinoma MX-1 Xenograft (intrarenal inoculation) in NU/NU BALB/C (nude) mice. To be noted: endpoint: mean tumor weight change, higher = larger tumour. The essentials: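 T/C readout: treated-group measurement over vehicle-control measurement, using tumor size or survival in tumor-bearing mice.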

[1] abbreviates: dose: 37.5 mg/kg/injection, schedule: Q04DX003 (ip), vehicle: Klucel (hydroxypropylcellulose) (HPC).
Setting [2] is: dose: 75.0 mg/kg/injection, schedule: Q04DX003 (ip), vehicle: Klucel (hydroxypropylcellulose) (HPC).
Where [3] appears, read: dose: 300.0 mg/kg/injection, schedule: Q04DX003 (ip), vehicle: Klucel (hydroxypropylcellulose) (HPC).
Where [4] appears, read: dose: 150.0 mg/kg/injection, schedule: Q04DX003 (ip), vehicle: saline with Tween-80.
Where [5] appears, read: dose: 300.0 mg/kg/injection, schedule: Q04DX003 (ip), vehicle: saline with Tween-80.
[6] abbreviates: dose: 12.5 mg/kg/injection, schedule: Q04DX003 (ip), vehicle: saline with Tween-80.
Where [7] appears, read: dose: 50.0 mg/kg/injection, schedule: Q04DX003 (ip), vehicle: saline with Tween-80.
Setting [8] is: dose: 100.0 mg/kg/injection, schedule: Q04DX003 (ip), vehicle: saline with Tween-80.

Structures are written as SMILES. Where “and” joins values, the source holds several entries; their conditions need not be identical. Identical values can stand only once. Inconclusive results are not listed.

Take `O=CNCO`: the T/C reads like this: (dose: 300.0 mg/kg/injection, schedule: Q01DX010 (sc), vehicle: water) 68 % of control; (dose: 600.0 mg/kg/injection, schedule: Q01DX010 (sc), vehicle: water) 39 % of control; (dose: 1200.0 mg/kg/injection, schedule: Q01DX010 (sc), vehicle: water) 11 % of control; (dose: 2000.0 mg/kg/injection, schedule: Q01DX010 (sc), vehicle: water) 8 % of control.

On to `CN(C)CCCOc1nc2c(c(=O)n(C)c(=O)n2C)n1C` (tested in a mixture with another compound), for which the T/C is 75 % of control under setting [1]; 63 % of control and 65 % of control under setting [2]; 58 % of control and 62 % of control (dose: 150.0 mg/kg/injection, schedule: Q04DX003 (ip), vehicle: Klucel (hydroxypropylcellulose) (HPC)); 19 % of control and 20 % of control under setting [3].

Turning to `CS(C)=O`, the T/C by setting is: (dose: 750.0 mg/kg/injection, schedule: Q01DX010 (sc), vehicle: saline) 122 % of control; (dose: 3000.0 mg/kg/injection, schedule: Q01DX010 (sc), vehicle: saline) 121 % of control.

With `Nc1nc2ncn(O)c2c(=O)[nH]1`, the T/C runs as follows: (dose: 25.0 mg/kg/injection, schedule: Q04DX003 (ip), vehicle: water) 25 % of control and 41 % of control; (dose: 50.0 mg/kg/injection, schedule: Q04DX003 (ip), vehicle: water) 13 % of control.

In the case of `O=c1n(CC2CO2)c(=O)n(CC2CO2)n1CC1CO1` (configuration not stated), the T/C reads like this: (dose: 9.38 mg/kg/injection, schedule: Q04DX003 (sc), vehicle: suspension in saline) 46 % of control; (dose: 18.75 mg/kg/injection, schedule: Q04DX003 (sc), vehicle: suspension in saline) 20 % of control; (dose: 37.5 mg/kg/injection, schedule: Q04DX003 (sc), vehicle: suspension in saline) 12 % of control.

Consider `Nc1n[nH]c2ccccc12`, for which the T/C by setting is: (dose: 300.0 mg/kg/injection, schedule: Q04DX003 (ip), vehicle: other) 93 % of control; (dose: 600.0 mg/kg/injection, schedule: Q04DX003 (ip), vehicle: other) 108 % of control.

Take `COc1ccc(C[C@@H]2NC[C@@H](O)[C@@H]2OC(C)=O)cc1`: the T/C runs as follows: under setting [4], 78 % of control; under setting [5], 110 % of control.

For the compound `CC(C)c1cc(C(=O)O)c(O)c(C(C)C)c1.CC(C)c1cc(C(=O)O)c(O)c(C(C)C)c1.[Cu]`, the T/C reads like this: under setting [6], 74 % of control; under setting [7], 116 % of control; under setting [8], 90 % of control.

For `COc1cc2cc3c(c(O)c2c(O)c1/C=C/C(C)C)C(=O)CC(C)(OC(C)=O)C3` (configuration not stated), the T/C (dose: 5.0 mg/kg/injection, schedule: Q04DX003 (ip), vehicle: Klucel (hydroxypropylcellulose) (HPC)) is 85 % of control; the T/C (dose: 10.0 mg/kg/injection, schedule: Q04DX003 (ip), vehicle: Klucel (hydroxypropylcellulose) (HPC)) was 66 % of control; the T/C (dose: 20.0 mg/kg/injection, schedule: Q04DX003 (ip), vehicle: Klucel (hydroxypropylcellulose) (HPC)) was 63 % of control.

Consider `OCC1OC(n2cnc3c(=S)nc[nH]c32)C(O)C1O` (configuration not stated), for which the T/C is 86 % of control (dose: 300.0 mg/kg/injection, schedule: Q04DX003 (sc), vehicle: saline); 58 % of control (dose: 600.0 mg/kg/injection, schedule: Q04DX003 (sc), vehicle: saline); 59 % of control and 75 % of control (dose: 1200.0 mg/kg/injection, schedule: Q04DX003 (sc), vehicle: saline); 49 % of control (dose: 1600.0 mg/kg/injection, schedule: Q04DX003 (sc), vehicle: saline); 65 % of control (dose: 2000.0 mg/kg/injection, schedule: Q04DX003 (sc), vehicle: saline); 23 % of control and 39 % of control (dose: 2400.0 mg/kg/injection, schedule: Q04DX003 (sc), vehicle: saline).

For the compound `COc1ccc(N=C(C)C2C(=O)c3ccccc3C2=O)cc1`, the T/C runs as follows: (dose: 150.0 mg/kg/injection, schedule: Q04DX003 (ip), vehicle: DMSO) 93 % of control; (dose: 300.0 mg/kg/injection, schedule: Q04DX003 (ip), vehicle: DMSO) 98 % of control; (dose: 600.0 mg/kg/injection, schedule: Q04DX003 (ip), vehicle: DMSO) 110 % of control; (dose: 1200.0 mg/kg/injection, schedule: Q04DX003 (ip), vehicle: DMSO) 105 % of control.

For the compound `CN=S(=O)(OCCCCCOS(=O)(=NC)c1ccc(C)cc1)c1ccc(C)cc1` (configuration not stated), the T/C by setting is: (dose: 75.0 mg/kg/injection, schedule: Q04DX003 (sc), vehicle: saline with Tween-80) 86 % of control; (dose: 150.0 mg/kg/injection, schedule: Q04DX003 (sc), vehicle: saline with Tween-80) 61 % of control.

For `C=Cc1cc(OC)c2c(c1)c(=O)oc1c2cc(OC)c2c(O)ccc(C3OC(C(C)O)C(O)C3O)c21` (configuration not stated), the T/C runs as follows: under setting [1], 91 % of control; under setting [2], 51 % of control and 70 % of control; under setting [3], 28 % of control and 29 % of control.

With `CC[C@](C)(O)C(=O)O[C@H]1C(=O)O[C@@H]2C[C@H]3C(C)=CC(=O)[C@@H](O)[C@]3(C)[C@H]3[C@@]4(O)OC[C@]32[C@@H]1[C@@H](C)[C@H]4O`, the T/C was 23 % of control (dose: 0.25 mg/kg/injection, schedule: Q01DX010 (sc), vehicle: Klucel (hydroxypropylcellulose) (HPC)) and 2 % of control (dose: 0.5 mg/kg/injection, schedule: Q01DX010 (sc), vehicle: Klucel (hydroxypropylcellulose) (HPC)).

As to `O=C(Oc1ccccc1)c1cc(O)c(O)c(O)c1`, the T/C is, setting by setting: (dose: 150.0 mg/kg/injection, schedule: Q04DX003 (ip), vehicle: saline) 101 % of control; (dose: 300.0 mg/kg/injection, schedule: Q04DX003 (ip), vehicle: saline) 55 % of control.

Take `COc1ccc(C(C)c2cc3c(cc2OC)OCO3)cc1` (configuration not stated): the T/C is 88 % of control under setting [6]; 79 % of control (dose: 25.0 mg/kg/injection, schedule: Q04DX003 (ip), vehicle: saline with Tween-80); 83 % of control under setting [7]; 53 % of control under setting [8].

In the case of `N=C(N)c1ccc(N=NNc2ccc(C(=N)N)cc2)cc1`, the T/C under setting [4] was 83 % of control.

With `Cc1ccc2c(c1)n([O-])c1cc(Cl)ccc1[n+]2=O`, the T/C by setting is: under setting [4], 84 % of control and 86 % of control; under setting [5], 56 % of control and 66 % of control.

With `CC(=O)/C(=C\c1ccc(/C=C(\C(C)=O)C(=O)CCN(C)C)cc1)C(=O)CCN(C)C`, the T/C runs as follows: under setting [8], 122 % of control; (dose: 200.0 mg/kg/injection, schedule: Q04DX003 (ip), vehicle: saline with Tween-80) 90 % of control.

On to `CC(C)CCC(=O)c1ccoc1`, for which the T/C reads like this: (dose: 0.75 mg/kg/injection, schedule: Q01DX010 (ip), vehicle: saline with Tween-80) 101 % of control; (dose: 1.5 mg/kg/injection, schedule: Q01DX010 (ip), vehicle: saline with Tween-80) 103 % of control; (dose: 3.0 mg/kg/injection, schedule: Q01DX010 (ip), vehicle: saline with Tween-80) 84 % of control.

`N=C(N)c1nn(C2OC(CO)C(O)C2O)c2nc[nH]c(=O)c12` (configuration not stated): the T/C is 92 % of control (dose: 12.5 mg/kg/injection, schedule: Q04DX003 (ip), vehicle: Klucel + Tween-80); 42 % of control (dose: 25.0 mg/kg/injection, schedule: Q04DX003 (ip), vehicle: Klucel + Tween-80); 95 % of control (dose: 25.0 mg/kg/injection, schedule: Q04DX003 (ip), vehicle: distilled water + Tween-80 + alcohol); 83 % of control (dose: 50.0 mg/kg/injection, schedule: Q04DX003 (ip), vehicle: distilled water + Tween-80 + alcohol); 36 % of control (dose: 75.0 mg/kg/injection, schedule: Q04DX003 (ip), vehicle: Klucel + Tween-80); 4 % of control (dose: 100.0 mg/kg/injection, schedule: Q04DX003 (ip), vehicle: distilled water + Tween-80 + alcohol). Also, the T/C (dose: 125.0 mg/kg/injection, schedule: Q04DX003 (ip), vehicle: Klucel + Tween-80) is 9 % of control.

As for `COC1C(N)C(OC2C(Oc3cccc4c(O)c5c(=O)oc6ccc(C)c7c(=O)oc(c34)c5c67)OC(C)C(O)C2(C)O)OC(C)C1O` (configuration not stated), the T/C is, setting by setting: (dose: 2.5 mg/kg/injection, schedule: Q04DX003 (ip), vehicle: lactic acid) 90 % of control; (dose: 10.0 mg/kg/injection, schedule: Q04DX003 (ip), vehicle: lactic acid) 6 % of control.

Turning to `Cc1ccc(C(=O)NC2C(=O)NC(C(C)C)C(=O)N3CCCC3C(=O)N(C)CC(=O)N(C)C(C(C)C)C(=O)OC2C)c2c1Oc1c(c(C(=O)NC3C(=O)NC(C(C)C)C(=O)N4CCCC4C(=O)N(C)CC(=O)N(C)C(C(C)C)C(=O)OC3C)c3nc(-c4ccccc4)c(=O)oc3c1C)N2` (configuration not stated), the T/C was 16 % of control and 26 % of control (dose: 1.0 mg/kg/injection, schedule: Q04DX003 (ip), vehicle: water); 5 % of control (dose: 2.0 mg/kg/injection, schedule: Q04DX003 (ip), vehicle: water).
